The text below walks through data of patent US20230058316A1, “PEGYLATED IGE-DEPENDENT HISTAMINE-RELEASING FACTOR (HRF)-BINDING PEPTIDE AND USE THEREOF” (EWHA UNIVERSITY - INDUSTRY COLLABORATION FOUNDATION, priority 2020, published 2023).

Where no end group is shown, it is not given here.

The subject of this assay is IL-13. Briefly: IL-13 secretion in bronchoalveolar lavage fluid, ovalbumin-induced bronchial asthma and rhinitis mouse model. The class given is in vivo. Conditions: 1 mg/kg IP. As to the method:
A bronchial asthma and rhinitis animal model was prepared by the following method. An ovalbumin solution was prepared by dissolving ovalbumin in an aluminum hydroxide solution (1 mg/ml) 28 and 14 days before the start of inducing bronchial asthma and rhinitis, and 200 μl of the solution was intraperitoneally injected into each mouse for sensitization. After 14 days of final sensitization, 20 μl of saline/PBS (normal control; NC) or 20 μl of 10 mg/mL ovalbumin solution (positive control; PC) was instilled into the nasal cavity of each lightly anesthetized mouse 4 times every other day for 8 days to induce bronchial asthma and rhinitis.
After the end of the experiment, the amount of IL-13 in the supernatant obtained by centrifuging bronchoalveolar lavage fluid was measured and quantified by enzyme immunosorbent detection using mouse IL-13 ELISA kit (R&D system, USA).
Next, in order to confirm whether there is an effect of inhibiting IL-13 secretion even when administered in a small number of times, the dTBP2 of Preparative Example 4 and Example 3 was administered to the mouse model of Example 4-1 through intraperitoneal injection once in 4 days for a total of 2 times for 8 days inducing bronchial asthma and rhinitis. The amount of IL-13 was measured and quantified by the enzyme immunosorbent detection method in the same manner.
In addition, the dTBP2 of Preparative Example 4 and Example 3 was administered to the mouse model of Example 4-1 through intraperitoneal injection once on the 1st day of 8 days inducing bronchial asthma and rhinitis. The amount of IL-13 was measured and quantified by the enzyme immunosorbent detection method in the same manner.
The amount of IL-13 was measured and quantified by the enzyme immunosorbent detection method in the same manner.

“Example 3: dTBP2 (WYVYPSM) conjugated at the N-terminal with methoxy polyethylene glycol propionaldehyde (10 kDa) ({mPEG propionaldehyde 10 kDa}-WYVYPSM)”: the “reduction of IL-13 secretion” value (8 times daily for 8 days, FIG. 18) is “about 20%”. The “inhibiting IL-13 secretion” value (once in 4 days for a total of 2 times (FIG. 19) and once on the 1st day (FIG. 20)) is listed as “effective”. Besides, the “IL-13 secretion inhibitory effect” value (once on the 5th day of 8 days, FIG. 21) is on record as “inhibitory effect”.
